# pIC50: −log10 of the molar value.
# Assays:
# [1] = target: BRD4 (His-Brd4(44-477)) (Homo sapiens (Human), UniProt O60885); assay: TR-FRET in-vitro binding assay for BRD4; details: single determination or n ≧ 2 independent determinations, read-out: Biochemical IC50 BRD4
# Procedure, shortened: (§1)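 Compounds were serially diluted over eight concentrations and added to wells. TR-FRET signal was then measured.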
# [2] = target: BRD2 (His-Brd2(60-472)) (Homo sapiens (Human), UniProt P25440); assay: TR-FRET in-vitro binding assay for BRD2; details: single determination or n ≧ 2 independent determinations, read-out: Biochemical IC50 BRD2
# Procedure, shortened: as §1
# [3] = target: BRD3 (His-Brd3(20-477)) (Homo sapiens (Human), UniProt Q15059); assay: TR-FRET in-vitro binding assay for BRD3; details: single determination or n ≧ 2 independent determinations, read-out: Biochemical IC50 BRD3
# Procedure, shortened: as §1
# [4] = target: CREBBP bromodomain (His-CREBBP(1081-1197)) (Homo sapiens (Human), UniProt Q92793); assay: AlphaScreen in-vitro binding assay for CREBBP; details: single determination or n ≧ 2 independent determinations, read-out: Biochemical IC50 CREBBP
# Procedure, shortened: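 Reactions at 30 °C for 35 min, then Ni-chelate acceptor and streptavidin donor beads in HEPES pH 7.5, NaCl, Tween20, BSA, 60 min at room temperature. Eight-point compound series; IC50 by non-linear regression of percent inhibition.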
# [5] = test system: THP-1 cells; assay: Cell growth inhibition assay (CellTiter-Glo), THP-1; details: for GI50: Homo sapiens, THP-1, read-out: THP-1 GI50; for THP-1 TGI: THP-1 cells, total growth inhibition, CellTiter-Glo;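 on all read-outs here: viability read as cellular ATP luminescence after 4 days, 3-fold dilution series from 10 µM, DMSO vehicle-treated cells taken as 100%, cell-free medium wells as −100%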
# [6] = test system: K-562 cells; assay: Cell growth inhibition assay (CellTiter-Glo), K-562; details: for GI50: Homo sapiens, K562, read-out: K-562 GI50; for K-562 TGI: K-562 cells, total growth inhibition, CellTiter-Glo;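 on all read-outs here: cellular ATP measured by luminescence after 4 days of exposure, 3-fold dilution series from 10 µM, DMSO vehicle-treated cells define 100%, cell-free medium wells −100%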
# [7] = test system: MV-4-11 cells; assay: Cell growth inhibition assay (CellTiter-Glo), MV-4-11; details: for GI50: Homo sapiens, MV4-11, read-out: MV-4-11 GI50; for MV-4-11 TGI: MV-4-11 cells, total growth inhibition, CellTiter-Glo;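 on all read-outs here: cellular ATP luminescence after 4 days, 3-fold dilution series from 10 µM top dose, vehicle (0.1% DMSO) set to 100%, cell-free medium set to −100%, day 0 corrected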
# CREBBP bromodomain (His-CREBBP(1081-1197)), sequence (Q92793 1081-1197): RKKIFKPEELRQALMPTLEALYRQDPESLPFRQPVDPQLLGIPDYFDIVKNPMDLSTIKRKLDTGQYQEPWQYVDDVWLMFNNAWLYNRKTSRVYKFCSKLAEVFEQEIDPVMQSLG
# BRD2 (His-Brd2(60-472)), sequence (P25440 60-472): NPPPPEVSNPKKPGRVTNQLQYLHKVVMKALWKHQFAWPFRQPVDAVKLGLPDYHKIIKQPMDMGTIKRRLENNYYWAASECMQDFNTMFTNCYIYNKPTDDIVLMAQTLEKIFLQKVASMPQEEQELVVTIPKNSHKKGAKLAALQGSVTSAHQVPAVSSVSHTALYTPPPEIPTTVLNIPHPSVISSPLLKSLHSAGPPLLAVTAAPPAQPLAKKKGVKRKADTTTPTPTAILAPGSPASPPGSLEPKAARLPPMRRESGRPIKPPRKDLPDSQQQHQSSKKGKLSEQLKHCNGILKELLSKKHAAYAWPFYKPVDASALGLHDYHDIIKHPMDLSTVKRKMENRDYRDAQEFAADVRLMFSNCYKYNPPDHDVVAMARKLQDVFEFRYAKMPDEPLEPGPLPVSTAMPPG
# BRD3 (His-Brd3(20-477)), sequence (Q15059 20-477): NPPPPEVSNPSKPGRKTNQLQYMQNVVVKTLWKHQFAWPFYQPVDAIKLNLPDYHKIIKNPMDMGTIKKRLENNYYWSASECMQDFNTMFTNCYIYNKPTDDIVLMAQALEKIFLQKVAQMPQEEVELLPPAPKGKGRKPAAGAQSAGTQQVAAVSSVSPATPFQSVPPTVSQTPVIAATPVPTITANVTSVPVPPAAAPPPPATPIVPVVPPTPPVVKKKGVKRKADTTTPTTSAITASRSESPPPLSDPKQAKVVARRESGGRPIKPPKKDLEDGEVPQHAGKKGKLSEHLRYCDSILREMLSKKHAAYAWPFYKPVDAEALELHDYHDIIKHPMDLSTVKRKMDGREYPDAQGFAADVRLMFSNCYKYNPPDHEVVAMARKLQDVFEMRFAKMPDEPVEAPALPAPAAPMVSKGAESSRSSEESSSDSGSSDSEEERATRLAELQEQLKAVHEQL
Structure (SMILES),pIC50 [1],pIC50 [2],pIC50 [3],pIC50 [4],GI50 [5],GI50 [6],GI50 [7],THP-1 TGI [5],K-562 TGI [6],MV-4-11 TGI [7]
"Cc1cc(N2C(=O)c3nc(C4=CCOC4)n(C(C)C)c3C2c2ccc(Cl)cc2)cn2c(CF)nnc12 (stereo not drawn) [Example 92, 6-(4-chlorophenyl)-2-(2,5-dihydrofuran-3-yl)-5-(3-(fluoromethyl)-8-methyl-[1,2,4]triazolo[4,3-a]pyridin-6-yl)-1-isopropyl-5,6-dihydropyrrolo[3,4-d]imidazol-4(1H)-one]",> 7.96,7.57,7.57,5.24,23.9 nM,110 nM,15.3 nM,0.0784 µM,>10 µM,0.03365 µM
COc1cc(N2C(=O)c3nc(C4CCN(C)CC4)n(C(C)C)c3C2c2ccc(Cl)cc2)cc2c1nnn2C (stereo not drawn) [Example 97],7.63,7.24,7.45,4.81,148 nM,596 nM,38.4 nM,0.432 µM,>10 µM,0.0902 µM
"Cc1cc(N2C(=O)c3nc(C4CCN(C)CC4)n(C(C)C)c3C2c2ccc(Cl)cc2)cn2c(C)nnc12 (stereo not drawn) [Example 98, 6-(4-chlorophenyl)-5-(3,8-dimethyl-[1,2,4]triazolo[4,3-a]pyridin-6-yl)-1-isopropyl-2-(1-methylpiperidin-4-yl)-5,6-dihydropyrrolo[3,4-d]imidazol-4(1H)-one]",7.82,7.55,7.64,5.54,472 nM,3630 nM,126 nM,2.14 µM,>10 µM,0.282 µM
"Cc1cc(N2C(=O)c3nc(C4=CCOCC4)n(C(C)C)c3C2c2ccc(Cl)cc2)nn2c(C)nnc12 (stereo not drawn) [Example 100, 6-(4-chlorophenyl)-2-(3,6-dihydro-2H-pyran-4-yl)-5-(3,8-dimethyl-[1,2,4]triazolo[4,3-b]pyridazin-6-yl)-1-isopropyl-5,6-dihydropyrrolo[3,4-d]imidazol-4(1H)-one]",7.58,7.20,7.60,< 4.43,7.22 nM,42.9 nM,4.96 nM,0.0267 µM,>10 µM,0.0138 µM
"Cc1cc(N2C(=O)c3nc(C4CCOCC4)n(C(C)C)c3C2c2ccc(Cl)cc2)nn2c(C)nnc12 (stereo not drawn) [Example 101, 6-(4-chlorophenyl)-5-(3,8-dimethyl-[1,2,4]triazolo[4,3-b]pyridazin-6-yl)-1-isopropyl-2-(tetrahydro-2H-pyran-4-yl)-5,6-dihydropyrrolo[3,4-d]imidazol-4(1H)-one]",7.64,7.47,7.62,4.71,3.49 nM,15.5 nM,1.86 nM,0.01105 µM,>10 µM,0.00411 µM
"Cc1cc(N2C(=O)c3nc(C4CCOCC4)n(C(C)C)c3[C@H]2c2ccc(Cl)cc2)nn2c(C)nnc12 [Example 102, (R)-6-(4-chlorophenyl)-5-(3,8-dimethyl-[1,2,4]triazolo[4,3-b]pyridazin-6-yl)-1-isopropyl-2-(tetrahydro-2H-pyran-4-yl)-5,6-dihydropyrrolo[3,4-d]imidazol-4(1H)-one]",7.82,7.70,7.77,4.76,2.95 nM,13.4 nM,1.38 nM,0.01051 µM,>10 µM,0.004435 µM
"Cc1cc(N2C(=O)c3nc(C4=CCOCC4)n(C(C)C)c3[C@H]2c2ccc(Cl)cc2)nn2c(C)nnc12 [Example 103, (R)-6-(4-chlorophenyl)-2-(3,6-dihydro-2H-pyran-4-yl)-5-(3,8-dimethyl-[1,2,4]triazolo[4,3-b]pyridazin-6-yl)-1-isopropyl-5,6-dihydropyrrolo[3,4-d]imidazol-4(1H)-one]",> 7.96,> 7.96,> 7.96,< 4.43,3.47 nM,12.4 nM,2.09 nM,0.01055 µM,>10 µM,0.003945 µM
"Cc1cc(N2C(=O)c3nc(C4CCN(CC(C)(C)C)CC4)n(C(C)C)c3C2c2ccc(Cl)cc2)cn2c(C)nnc12 (stereo not drawn) [Example 104, 6-(4-chlorophenyl)-5-(3,8-dimethyl-[1,2,4]triazolo[4,3-a]pyridin-6-yl)-1-isopropyl-2-(1-neopentylpiperidin-4-yl)-5,6-dihydropyrrolo[3,4-d]imidazol-4(1H)-one]",7.61,7.39,7.48,5.55,21.2 nM,53.4 nM,8.21 nM,0.05395 µM,>10 µM,0.0187 µM

# Second part, led by results:
pIC50 [1],pIC50 [2],pIC50 [3],pIC50 [4],GI50 [5],GI50 [6],GI50 [7],Structure (SMILES),THP-1 TGI [5],K-562 TGI [6],MV-4-11 TGI [7]
7.39,7.05,7.38,5.14,50.1 nM,92.5 nM,19.3 nM,"Cc1cc(N2C(=O)c3ncn(C(C)C)c3C2c2ccc(Cl)cc2)cc2c1nnn2C (stereo not drawn) [Example 106, 6-(4-chlorophenyl)-5-(1,4-dimethyl-1H-benzo[d][1,2,3]triazol-6-yl)-1-isopropyl-5,6-dihydropyrrolo[3,4-d]imidazol-4(1H)-one]",0.0868 µM,>10 µM,0.0347 µM
7.64,7.55,7.64,5.84,11.2 nM,41.8 nM,4.84 nM,"Cc1cc(N2C(=O)c3nc(C4CC4)n(C(C)C)c3[C@H]2c2ccc(Cl)cc2)cn2c(C)nnc12 [Example 107, (R)-6-(4-chlorophenyl)-2-cyclopropyl-5-(3,8-dimethyl-[1,2,4]triazolo[4,3-a]pyridin-6-yl)-1-isopropyl-5,6-dihydropyrrolo[3,4-d]imidazol-4(1H)-one]",0.02375 µM,>10 µM,0.00971 µM
7.21,6.74,7.13,5.01,47.4 nM,132 nM,20.7 nM,COc1cc(N2C(=O)c3nc(C4CCOCC4)n(C(C)C)c3[C@H]2c2ccc(Cl)cc2)cc2c1nnn2C [Example 108],0.113 µM,>10 µM,0.04295 µM
7.66,7.42,7.72,5.36,11.9 nM,52 nM,6.29 nM,"Cc1cc(N2C(=O)c3nc(C)n(C(C)C)c3[C@H]2c2ccc(Cl)cc2)cc2c1nnn2C [Example 109, (R)-6-(4-chlorophenyl)-5-(3,7-dimethyl-3H-benzo[d][1,2,3]triazol-5-yl)-1-isopropyl-2-methyl-5,6-dihydropyrrolo[3,4-d]imidazol-4(1H)-one]",0.0358 µM,>10 µM,0.01535 µM
> 7.96,7.92,> 7.96,4.44,6.94 nM,30.6 nM,4.48 nM,"Cc1cc(N2C(=O)c3nc(C)n(C(C)C)c3[C@H]2c2ccc(Cl)cc2)nn2c(C)nnc12 [Example 110, (R)-6-(4-chlorophenyl)-5-(3,8-dimethyl-[1,2,4]triazolo[4,3-b]pyridazin-6-yl)-1-isopropyl-2-methyl-5,6-dihydropyrrolo[3,4-d]imidazol-4(1H)-one]",0.0216 µM,>10 µM,0.011 µM
7.85,7.48,7.70,5.05,40.2 nM,90.1 nM,18.6 nM,COc1ncccc1-c1nc2c(n1C(C)C)[C@@H](c1ccc(Cl)cc1)N(c1cc(OC)c3nnn(C)c3c1)C2=O [Example 111],0.0921 µM,>10 µM,0.04465 µM
6.70,7.00,6.99,< 4.43,171 nM,358 nM,125 nM,"COc1ccc(-c2nc3c(n2C(C)C)C(c2ccc(Cl)cc2)N(c2cc(OC)c4nnn(C)c4c2)C3=O)cn1 (stereo not drawn) [Example 113, 6-(4-chlorophenyl)-1-isopropyl-5-(4-methoxy-1-methyl-1H-benzo[d][1,2,3]triazol-6-yl)-2-(6-methoxypyridin-3-yl)-5,6-dihydropyrrolo[3,4-d]imidazol-4(1H)-one]",0.3595 µM,>10 µM,0.186 µM

# — US9890166B2, “Imidazopyrrolidine derivatives and their use in the treatment of disease” (NOVARTIS AG, priority 2013, dated 2018)
